Where two headings read alike, the source gives them in different places.
Assays:
[1] = system: LPS induced TNF-α production in RAW 264.7 cells; conditions: reported by Iyori et al. 2008; cited from earlier work
[2] = system: LPS induced TNF-α production in RAW 264.7 cells; test: LPS-induced TNF-α production in RAW 264.7 cells, ELISA of culture supernatants; format: cell-based; conditions: for IC50: Mus musculus, RAW264.7
Description: Cell culture supernatants were used for the determination of TNF-α production by ELISA (R&D systems).
RAW 264.7 cells were treated with G. africanum leaf and stem extracts (200 μg/ml) for 1 hour and were then induced with LPS (10 μg/ml) for 18 hr. Cell culture supernatants were used for the determination of TNF-α production by ELISA (R&D systems).
Methanol, ethyl acetate and 95% ethanol stem extracts were further analyzed in a dose dependent manner (25-200 μg/ml).

IC50 ([2]; resveratrol 1 μM-100 μM, 1 hour pre-treatment, LPS 10 μg/ml for 18 hr, read-out: IC50, anti-inflammatory activity of resveratrol (FIG. 3)): 50 µM
IC50 ([2]; same value as 50 μM, restated in μg/ml, read-out: IC50, anti-inflammatory activity of resveratrol (FIG. 3), expressed by mass): 12 µg/mL
SMILES: Oc1ccc(/C=C/c2cc(O)cc(O)c2)cc1 [resveratrol, (E)-5-(4-hydroxystyryl)benzene-1,3-diol]
Inhibition of LPS induced TNF-α production [1]: could inhibit LPS induced TNF-α production
Inhibition of LPS-induced TNF-α production ([2]; resveratrol at 50 μM and 100 μM, FIG. 3A): inhibited LPS-induced TNF-α production

From patent US20140093598A1, “COMPOUNDS AND EXTRACTS FROM GNETUM AFRICANUM AND ANTI-INFLAMMATORY ACTIVITY RELATED THERETO” (PHARMAFRI-CAN INC., priority 2010, published 2014)
